Experimental data published in ChEMBL document CHEMBL1201862, “PubChem BioAssay data set” (2004).
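All cell lines were grown in 96-well plates and treated with compound for 48 hours. Abbreviation: GI50, concentration required for 50% inhibition of growth.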 Calls of active or inactive are those of the source. No stated cut-off is given here; in the data, active = GI50 up to about 1.1 µM and inactive = higher.

Assays:
Experiment in all cases: NCI tumour cell line growth inhibition, 48 h
[1] = system: 786-0
[2] = system: ACHN
[3] = system: TK-10
[4] = system: SK-OV-3
[5] = system: SF-268
[6] = system: SN12C
[7] = system: HOP-62
[8] = system: LXFL 529
[9] = system: IGROV-1
[10] = system: A498
[11] = system: COLO 205
[12] = system: CCRF-CEM
[13] = system: HCC 2998
[14] = system: SR
[15] = system: NCI-H23
[16] = system: K562
[17] = system: UACC-257
[18] = system: UACC-62
[19] = system: M19-MEL
[20] = system: DLD-1
[21] = system: EKVX
[22] = system: HOP-18
[23] = system: HCT-116
[24] = system: OVCAR-8
[25] = system: U-251
[26] = system: MOLT-4
[27] = system: KM12
[28] = system: SNB-75
[29] = system: SNB-19
[30] = system: SF-539
[31] = system: NCI-H226
[32] = system: SK-MEL-2
[33] = system: RPMI-8226
[34] = system: NCI-H522
[35] = system: SF-295
[36] = system: OVCAR-5
[37] = system: UO-31
[38] = system: DMS-273
[39] = system: LOX IMVI
[40] = system: XF498
[41] = system: OVCAR-4
[42] = system: SNB-78
[43] = system: SW-620
[44] = system: OVCAR-3
[45] = system: A549
[46] = system: SK-MEL-28
[47] = system: M14
[48] = system: NCI-H460
[49] = system: HOP-92
[50] = system: CAKI-1
[51] = system: Malme-3M
[52] = system: HT-29
[53] = system: SK-MEL-5

Measured: GI50

Cn1cnc([N+](=O)[O-])c1SC1=NCCS1
inactive: [1] > 100 µM | [2] 91 µM | [3] > 100 µM | [4] > 100 µM | [5] > 100 µM | [6] > 100 µM | [7] > 100 µM | [8] 27 µM | [9] > 100 µM | [10] > 100 µM | [11] 70 µM | [12] 28.2 µM | [13] > 100 µM | [14] 24.5 µM | [15] 81.1 µM | [16] 28 µM | [17] 72.8 µM | [18] 51.2 µM | [19] 49.4 µM | [20] 31.4 µM | [21] > 100 µM | [22] 4.24 µM | [23] 50 µM | [24] > 100 µM | [25] > 100 µM | [26] 25.6 µM | [27] > 100 µM | [28] > 100 µM | [29] > 100 µM | [30] > 100 µM | [31] > 100 µM | [32] 47.4 µM | [33] 36.7 µM | [34] 16.7 µM | [35] > 100 µM | [36] > 100 µM | [37] 74.6 µM | [38] 98.6 µM | [39] 17.3 µM | [40] > 100 µM | [41] 89.9 µM | [42] 42.9 µM | [43] 47.6 µM | [44] > 100 µM | [45] > 100 µM | [46] 55 µM | [47] 48 µM | [48] > 100 µM | [49] 37.4 µM | [50] > 100 µM | [51] 22 µM | [52] > 100 µM | [53] > 100 µM
